Measured values as given in patent US20260041640A1 (INCYCLIX BIO, LLC, priority 2023, published 2026).
Like-named read-outs stand apart in the source and are kept apart here.

Key:
[1] = Plasma protein binding, human; assay type: in vitro ADME
Description: Additionally, the whole blood-to-plasma ratio (KWB/P) in humans is 6.20, which also exceeds the other species tested (Table 7).

[2] = Non-Sink Dissolution Method (gastric to intestinal transfer); assay type: physicochemical
Experimental: The Gastric Media comprised 0.01 N HCl (pH 2.0) at a dose of 1500 μgA/mL. Timepoints tested were 10 min and 25 min following microcentrifugation of 100 μL aliquots diluted 5× in MeOH at 18,500 g. The Intestinal Media comprised 0.5 wt % SIF in Phosphate Buffer (pH 6.5) at a dose of 500 μgA/mL. Timepoints tested were 5 min, 30 min, 45 min, 70 min, 180 min, and 24 hr (post-transfer) following microcentrifugation of 100 μL aliquots diluted 5× in MeOH at 18,500 g. Timepoints tested were 5 min, 45 min, and 24 hr (post-transfer) following ultracentrifugation of 100 μL aliquots diluted 5× in MeOH at 470,000 g. The supernatants were assayed by HPLC.

[3] = tested on: LU5202 [small cell lung cancer (SCLC)] patient-derived xenograft (PDX) model; assay type: in vivo
Experimental: 8-week-old NOD/SCID female mice (n=59) were split into two cohorts. A total of 29 mice were enrolled in cohort 1 of the study. A total of 30 mice were enrolled in […] of the study. When the average tumor volume reached 150-250 mm^3, all animals were randomly allocated to the 6 different study groups using Study Log software (Table 24). Animals were monitored weekly for palpable tumors, or any changes in appearance or behavior. Once tumors were palpable, tumors were measured at least once weekly using calipers. Body weight was measured at least 2 times per week following randomization and initiation of treatment.

[4] = tested on: ST4316B ER+, CDK4/6 inhibitor-resistant breast PDX model; assay: ST4316B ER+, CDK4/6 inhibitor-resistant breast PDX model; assay type: in vivo, athymic nude mice
Experimental: Athymic nude, outbread homozygous (Crl:NU(NCr)-Foxnl^nu) 6-12-week-old ST4316B [HX] mice were analyzed. Tumor fragments from ST4316B were harvested from host animals and implanted into immune-deficient mice and the study initiated at a mean tumor volume of approximately 150-300 mm^3. […] Data collected from this study included animal weights, observations, and tumor dimensions. This information was used to determine agent tolerability based on weight change and gross physiologic changes; and anticancer activity based on tumor growth inhibition or regression. […]

[5] = First-in-human clinical study: safety and tolerability; assay type: in vivo
Experimental: (§1) All INX-315 tablets were taken at approximately the same time(s) each day.
Cohort 1 enrollment of 6 subjects dosed at 100 mg oral QD was completed in October of 2023.

[6] = Toxicity and toxicokinetics studies, mouse; assay type: in vivo, mice
Experimental: (§2) Nominal dose values and sampling times were used for calculations. Any concentration reported as BLQ (LLOQ<1.0 ng/mL) was set equal to zero. Toxicokinetic analyses included Cmax, Tmax, AUC0-24, t1/2, RA Cmax, and RA AUC0-24.
(§3) Following this, human dose exposure was simulated using a combined whole blood and plasma compartment PK model using allometry and whole blood parameter estimates for the absorption rate constants and bioavailability per animal species. Absolute dose administration was used for modeling. V1, CL, V2, and Q parameters were extrapolated to human using allometric scaling. CL, Q by exponent equaled 0.818. V1, V2 by exponent equaled 1.03. Human body weight was set to 75 kg. Absorption rate constant (KA) was in reasonable ranges in mouse, rat, and dog, with values of 0.44, 0.53, and 0.18 (1/hr), respectively.

[7] = Toxicity and toxicokinetics studies, rat; assay type: in vivo, Sprague Dawley rats
Experimental: as §2, §3, §1

[8] = Toxicity and toxicokinetics studies, dog; assay type: in vivo, beagle dogs
Description: Following this, human dose exposure was simulated using a combined whole blood and plasma compartment PK model using allometry and whole blood parameter estimates for the absorption rate constants and bioavailability per animal species. Absolute dose administration was used for modeling. V1, CL, V2, and Q parameters were extrapolated to human using allometric scaling. […] Human body weight was set to 75 kg.

[9] = tested on: Ovcar-3; details: BLU-222: based on Ovcar-3 cell cycle data (maximum G1 arrest); read-out: Cellular IC50; cited from earlier work

NS(=O)(=O)c1ccc(Nc2ncc3cc4n(c3n2)C2(CCCCC2)C(=O)NN4)cc1 [INX-315]
fraction unbound [1]: 0.056 | Non-Sink Dissolution, Micro @ 5 min ([2]; microcentrifuged (total drug), 5 min): 13 | Non-Sink Dissolution, Micro @ 60 min ([2]; microcentrifuged (total drug), 60 min): 12 | Non-Sink Dissolution, Micro @ 180 min ([2]; microcentrifuged (total drug), 180 min): 13 | Non-Sink Dissolution, Ultra @ 5 min ([2]; ultracentrifuged (dissolved drug), 5 min): 13 | Non-Sink Dissolution, Ultra @ 60 min ([2]; ultracentrifuged (dissolved drug), 60 min): 12 | Non-Sink Dissolution, Ultra @ 180 min ([2]; ultracentrifuged (dissolved drug), 180 min): 12 | tumor growth inhibition ([3]; cohort 1, INX-315 100 mg/kg added to chemotherapy (cisplatin + etoposide)): 70% | body weight / tolerability ([3]; cohort 1, chemotherapy and INX-315): lost weight and did not tolerate the treatment well | tumor growth inhibition ([3]; cohort 1, monotherapy 100 mg/kg BID PO): 62% | tumor growth inhibition ([3]; cohort 1, monotherapy 150 mg/kg BID PO): 66% | tumor growth inhibition ([3]; cohort 2, INX-315 100 mg/kg added to chemotherapy): 94% | tumor growth inhibition ([3]; cohort 2, monotherapy 100 mg/kg BID PO): 70% | tumor growth inhibition ([3]; cohort 2, monotherapy 150 mg/kg BID PO): 87% | tumor growth inhibition versus control ([4]; Day 31, INX-315 100 mg/kg BID + ribociclib 50 mg/kg QD, p=0.0033): statistically significant tumor growth inhibition | tumor growth inhibition percentage (TGI %) ([4]; Day 45, INX-315 100 mg/kg BID + ribociclib 50 mg/kg QD (Group 8), p<0.0002): 65% | safety issues ([5]; 200 mg QD): no new safety issues | DLTs ([5]; Cohort 1, 100 mg QD): No DLTs | changes in complete blood counts or clinical chemistries ([5]; Cohort 1, 100 mg QD): No significant changes | tolerability ([5]; Cohort 1, 100 mg QD): well tolerated | Absorption rate constant (KA) ([6]; model parameter estimate): 0.44 h⁻¹ | bioavailability ([6]; whole blood, po, read-out: Bioavailability (F1)): 62% | bioavailability ([7]; both sexes, Sprague Dawley, rat, in vivo, po): 8% | Absorption rate constant (KA) ([7]; both, Sprague Dawley, rat, in vivo): 0.53 h⁻¹ | human equivalent dose (HED) of the no observed adverse effect level (NOAEL) ([7]; rats): 9730 mg/day | safety margin of 100 mg QD starting dose vs HED of NOAEL ([7]; rats): 97 fold | Absorption rate constant (KA) ([8]; beagle, dog, in vivo): 0.18 h⁻¹ | HED of the highest nonseverely toxic dose (HNSTD) ([8]; dogs): 16,216 mg/day | safety margin of 100 mg QD starting dose vs HED of HNSTD ([8]; dogs): 160 fold | IC50 [9]: < 100 nM
